Paper PMC7956174, “Probing the Role of the Conserved Arg174 in Formate Dehydrogenase by Chemical Modification and Site-Directed Mutagenesis” (Molecules, 2021)
Like-named read-outs stand apart in the source and are kept apart here.

Tests used:
[1] = molecular target: T1, CbFDH (Candida boidinii formate dehydrogenase) ([Candida] boidinii, UniProt O13437); assay: steady-state inhibition kinetics; format: biochemical
T1 construct: gene FDH1; no tag told
T1 sequence (O13437 1-364): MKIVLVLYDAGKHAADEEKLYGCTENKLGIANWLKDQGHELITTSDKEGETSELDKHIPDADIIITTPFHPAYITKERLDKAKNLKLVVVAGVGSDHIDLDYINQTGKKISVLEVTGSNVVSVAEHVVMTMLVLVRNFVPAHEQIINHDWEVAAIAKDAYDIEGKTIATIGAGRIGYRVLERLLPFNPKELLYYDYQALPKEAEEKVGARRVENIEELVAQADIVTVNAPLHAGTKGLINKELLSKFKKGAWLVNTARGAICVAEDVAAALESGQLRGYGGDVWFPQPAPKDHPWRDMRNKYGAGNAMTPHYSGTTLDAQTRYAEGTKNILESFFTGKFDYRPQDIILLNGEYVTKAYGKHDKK
From the text: steady-state inhibition kinetics on CbFDH (Candida boidinii formate dehydrogenase)

steady-state kinetics = substrate: O=CO; assay: steady-state kinetics; format: biochemical, [Candida] boidinii; details: 0.1 M potassium phosphate pH 7.5, 25 °C, co-substrate NAD+
From the text: steady-state kinetics on CbFDH (Candida boidinii formate dehydrogenase)

NC(=O)C1=CN([C@@H]2O[C@H](COP(=O)(O)OP(=O)(O)OC[C@H]3O[C@@H](n4cnc5c(N)ncnc54)[C@H](O)[C@@H]3O)[C@@H](O)[C@H]2O)C=CC1 [NADH]
Ki ([1]; read-out: Ki (mM) (NADH)): 0.03 ± 0.005 mM

Nc1ncnc2c1ncn2[C@@H]1O[C@H](COP(=O)(O)O)[C@@H](O)[C@H]1O [AMP]
Ki ([1]; read-out: Ki (mM) (AMP)): 1.6 ± 0.1 mM

B1: CbFDH (Candida boidinii formate dehydrogenase) ([Candida] boidinii) (protein)
chain: T1 sequence (O13437 1-364)
notes: no tag told
Km (steady-state kinetics): 2400 ± 100 µM
